Source: US20070161643A1, “Pyridin-2-one compounds useful as inhibitors of thrombin” (priority 2004, published 2007)
pIC50: −log10 of the molar value.

Biological target: T1, Human α-thrombin (Homo sapiens, UniProt P00734)
T1 construct: 12 μL of α-thrombin solution (Human α-thrombin, Sigma Chemical Co. or Hematologic Technologies); purchased Sigma Chemical Co. or Hematologic Technologies
Test: Test B: Determination of thrombin inhibition with a chromogenic, robotic assay
Assay type: biochemical
Experimental: The thrombin inhibitor potency is measured with a chromogenic substrate method, in a Plato 3300 robotic microplate processor (Rosys AG, CH-8634 Hombrechtikon, Switzerland), using 96-well, half volume microtitre plates (Costar, Cambridge, Mass., USA; Cat No 3690). Stock solutions of test substance in DMSO (72 μL), 0.1-1 mmol/L, are diluted serially 1:3 (24+48 μL) with DMSO to obtain ten different concentrations, which are analysed as samples in the assay. 2 μL of test sample is diluted with 124 μL assay buffer, 12 μL of chromogenic substrate solution (S-2366, Chromogenix, Mölndal, Sweden) in assay buffer and finally 12 μL of α-thrombin solution (Human α-thrombin, Sigma Chemical Co. or Hematologic Technologies) in assay buffer, are added, and the samples mixed. The final assay concentrations are: test substance 0.00068-133 μmol/L, S-2366 0.30 mmol/L, α-thrombin 0.020 NIHU/mL. The linear absorbance increment during 40 minutes incubation at 37° C. is used for calculation of percentage inhibition for the test samples, as compared to blanks without inhibitor.

pIC50: 7.04
Compound: Cc1ccc(C)c(CCNn2ccc(C)c(CC(=O)NCc3ccc(C(=N)N)cc3)c2=O)c1 [2(xi), N-(4-Carbamimidoylbenzyl)-2-{1-[2-(2,5-dimethylphenyl)ethylamino]-4-methyl-2-oxo-1,2-dihydropyridin-3-yl}acetamide]
